The results in this text go back to ChEMBL document CHEMBL4387772, “Design, synthesis and biological evaluation of hypolipidemic compounds based on BRD4 inhibitor RVX-208” (Bioorg Med Chem Lett, 2019).

Molecules are shown by their SMILES.

Experiment [1] concerns HepG2. Nature of the experiment: Up regulation of ApoA1 mRNA expression in human HepG2 cells at 100 uM by RT-PCR analysis relative to control. It counts as functional.
The target in experiment [2] is Bromodomain-containing protein 4 (Homo sapiens, UniProt O60885). Nature of the experiment: Inhibition of BRD4 bromodomain 2 (unknown origin) incubated for 30 mins by ELISA. On the technique in general: An ELISA detects its analyte on a solid surface through an enzyme-linked reagent.
Experiment [3] has as its system Rattus norvegicus. Nature of the experiment: Antihyperlipidemic activity in Sprague-Dawley rat assessed as decrease in triglyceride level at 30 mg/kg, po administered twice daily for 1 week measured 2 hrs post-last dose by GPO-PAP analysis relative to control. More on the design: scale not given: the % may be the effect or the level left. It counts as functional.

Experiment [4] concerns Rattus norvegicus. Nature of the experiment: Antihyperlipidemic activity in Sprague-Dawley rat assessed as increase in HDL-C level at 30 mg/kg, po administered twice daily for 1 week measured 2 hrs post-last dose by HPLC analysis relative to control. It counts as functional.
In experiment [5] the test system is Rattus norvegicus. Nature of the experiment: Antihyperlipidemic activity in po dosed Sprague-Dawley rat assessed as increase in HDL-C level administered twice daily for 1 week measured 2 hrs post-last dose by HPLC analysis relative to control. It counts as functional.
Experiment [6] has as its system Rattus norvegicus. Nature of the experiment: Antihyperlipidemic activity in po dosed Sprague-Dawley rat assessed as decrease in triglyceride level administered twice daily for 1 week measured 2 hrs post-last dose by GPO-PAP analysis relative to control. More on the design: scale not given: the % may be the effect or the level left. It counts as functional.

Take `COc1cc(OC)c2c(=O)[nH]c(-c3cc(OC)c(OC(=O)CC(=O)OC(C)(C)C(=O)O)c(OC)c3)nc2c1`: the figures for the Activity in experiment [1], in experiment [3] and in experiment [4] were 37.34%, 50.36% and 21.58%, respectively. In addition, in experiment [2], the IC50 (commonly the concentration needed to halve the response being measured) is greater than 100 nM.
Turning to `COc1cc(OC)c2c(=O)[nH]c(-c3cc(OC)c(OC(=O)C(C)(C)Br)c(OC)c3)nc2c1`, the results for the Activity in experiment [1], in experiment [3] and in experiment [4] were 44.82%, 41.63% and 32.74%, respectively. The half-maximal inhibitory concentration (IC50) in experiment [2] was 20.9 nM.
Turning to `COc1cc(OC)c2c(=O)[nH]c(-c3cc(C)c(OCCO)c(C)c3)nc2c1` [APABETALONE], the Activity in experiment [1] was determined as 38.91%; in experiment [5], 23.84%; in experiment [6] it was 3.13%.
For `COc1cc(OC)c2c(=O)[nH]c(-c3cc(C)c(OC(=O)C(C)(C)Br)c(C)c3)nc2c1`, the Activity in experiment [1] came out at 34.85%; in experiment [3], 36.21%; in experiment [4], 19.33%. The same compound came in with an IC50 in experiment [2] of 53.8 nM.
`COc1cc(OC)c2c(=O)[nH]c(-c3cc(OC)c(OCCO)c(OC)c3)nc2c1`: the Activity is 32.77% in experiment [1], 5.07% in experiment [3] and 20.61% in experiment [4]. Besides, the half-maximal inhibitory concentration (IC50) in experiment [2] stood at 27.5 nM.
For `COc1cc(OC)c2c(=O)[nH]c(-c3ccc(C(=O)OCCO)cc3)nc2c1`, the values for the Activity in experiment [1], in experiment [3] and in experiment [4] were 25.3%, 11.94% and 16.51%, respectively. This compound gave an IC50 in experiment [2] of 71 nM.
For `COc1cc(OC)c2c(=O)[nH]c(-c3cc(OC)c(OC(=O)C(C)(C)Oc4ccc(Cl)cc4)c(OC)c3)nc2c1`, in that order: 42.65%, 37.34%, 29.39% and 9.7 nM.
`COc1cc(OC)c2c(=O)[nH]c(-c3cc(C)c(OC(=O)C(C)(C)Oc4ccc(Cl)cc4)c(C)c3)nc2c1`: the Activity in experiment [1] is 38.09%; in experiment [3], 34.85%; in experiment [4] it was 22.5%. In addition, in experiment [2], inhibition was half-maximal at 39.6 nM (IC50).
For `Cc1ccc(C)c(OCCCC(C)(C)C(=O)O)c1` [GEMFIBROZIL], the Activity is given as 7.03% in experiment [5] and 39.66% in experiment [6].
For the compound `CCOC(=O)C(C)(C)Oc1ccc(Cl)cc1` [CLOFIBRATE], the figures for the Activity in experiment [5] and in experiment [6] were 5.92% and 41.35%, respectively.
For `COc1cc(OC)c2c(=O)[nH]c(-c3cc(C)c(OC(=O)CC(=O)OC(C)(C)C(=O)O)c(C)c3)nc2c1`, the Activity in experiment [1] is given as 21.67%; in experiment [3], 48.59%; in experiment [4], 16.46%. Moreover, in experiment [2], the IC50 is greater than 100 nM.
